Source: US10722530B2, “Methods of diagnosing and treating cancer” (CASE WESTERN RESERVE UNIVERSITY, priority 2016, dated 2020)

Assays:
A2780 = test: Clonogenic survival assay; format: cell-based; details: Homo sapiens; A2780 (p53 wt), 24 h treatment, colonies after at least 10 days
Experimental: (§3) Cancer cells (200-300 cells/well) were seeded in 6-well culture dishes and allowed to adhere overnight. For 5-FdU, cells were treated for 24 h, then gently washed with PBS, and incubated with fresh media for at least 10 days to allow individual colonies to form. […] After 10-18 days, the plates were stained with methylene blue. Colonies containing ≥50 cells were counted. The percentage of survival was determined relative to untreated control averaged over 3 independent experiments.

H1299 = test: Clonogenic survival assay; format: cell-based; details: Homo sapiens, NCI-H1299; H1299 (p53 null), 24 h treatment, colonies after at least 10 days
Experimental: as §3

A375 = test: Clonogenic survival assay; format: cell-based; details: Homo sapiens, A-375; A375 (p53 wt), 24 h treatment, colonies after at least 10 days
Experimental: as §3

DLD1 cells [1] = test: AP site detection assay (genomic uracil and 5-FU); format: cell-based, human; details: for levels of AP sites: 0-200 nM 5-FdU 48 h
Experimental: The amount of cellular AP sites was assessed as we previously described by using a NIR cyanine-based AP site probe. […] After the reaction, AP site probe with a final concentration of 25 μM was added and incubated at 37° C. for 1 h. Following incubation, extracted DNA was precipitated, and the supernatant was discarded. DNA pellets were resuspended in H2O, and DNA concentrations were measured and adjusted. The fluorescence intensities of each sample were analyzed with 760 nm excitation and emission scan of 790-847 nm.

HCT116 p53 KO cells = test: Flow cytometric assay of apoptosis (Annexin V/PI); format: cell-based, human; details: 25 nM 5-FdU 24 h
Experimental: (§1) Cells were seeded in 6-well tissue culture plates (1.5×10^5 cells/well) and allowed to attach overnight. Cells were then treated with 25 nM 5-FdU for 24 h, washed twice with PBS, replenished with drug-free medium at 48, 72, and 96 h. After recovery, the cells floating in the medium were collected. The adherent cells were trypsinized, pelleted, washed in ice-cold PBS, and resuspended in 1× Binding Buffer according to the manufacturer's instructions (FITC Annexin V Apoptosis Detection Kit, BD Pharmingen). Cells were then stained with FITC Annexin V and PI for 15 minutes at room temperature in the dark. Annexin V-FITC detects translocation of […] from the inner to the out cell membrane during early apoptosis, and PI can enter the cells in late apoptosis or necrosis. Untreated cells were used as control for the double staining. The cells were analyzed immediately after staining using a Attune NXT instrument and FlowJo software. For each measurement, at least 20,000 cells were counted.

HCT116 p53 WT cells = test: Flow cytometric assay of apoptosis (Annexin V/PI); format: cell-based, human; details: 25 nM 5-FdU 24 h, at 48 h, both UDG expressing and UDG depleted cells
Experimental: as §1

γH2AX foci in DLD1 cells = test: γH2AX foci immunofluorescence staining; format: cell-based, human; details: 50 nM 5-FdU
Experimental: (§2) Cells cultured on glass coverslips were treated with 5-FdU in the presence or absence of 10 μM caspase inhibitor Q-VD-OPH (BioVision Inc). Cells were fixed in 3.7% formaldehyde for 10 minutes, blocked with PBS containing 10% FBS and 0.1% Triton X-100 for 20 minutes, washed with PBS three times, and incubated with primary anti-γH2AX antibody (Millipore, dilution: 1:150) in PBS containing 0.1% Triton X-100 at 4° C. overnight. The cells were then washed with PBS three times, incubated with secondary antibodies (Alexa Fluor 594, Life Technologies; dilution: 1:400) in PBS containing 0.1% Triton X-100 for 1 h, and washed with PBS three times. The slides were mounted with antifade solution with DAPI (Cell Signaling) and visualized on a Leica laser microscope.

[2] = test system: γH2AX foci in HEC1A cells; test: γH2AX foci immunofluorescence staining; format: cell-based, human; details: 50 nM 5-FdU
Experimental: as §2

[3] = test system: cleaved PARP in HEC1A cells; test: Western blot of cleaved PARP; format: cell-based, human; details: HEC1A, 50 nM 5-FdU
Experimental: Western blots were performed as described in Yan et al. (Clin Cancer Res. (2007) 13:1532-39). Antibodies used were as follows: Anti-UDG (FL-313) (Santa Cruz Biotechnology), anti-Cleaved PARP (Asp214)(19F4) (Cell Signaling), and anti-α-Tubulin (Calbiochem).

DLD1 cells [4] = test: Cell cycle and BrdU/PI labeling analysis; format: cell-based, human; details: for cell cycle progression (PI staining): 100 nM 5-FdU; for cell cycle profile (BrdU and PI co-staining): 100 nM 5-FdU 24 h
Experimental: For cell cycle analysis, DLD1 cells were synchronize by serum starvation for 48 h and released in fresh media for 16 h. The cells were then treated with 100 nM 5-FdU for 4, 8, 12, 20, 24, 28, 32, 36, 48, 72, and 96 h. At each time point, cells were harvested and fixed with methanol. Fixed cells were incubated with DNase-free RNaseA (Roche) and stained with 50 μg/mL PI solution (Sigma-Aldrich). For BrdU/PI labeling analysis, cells were treated with 100 nM 5-FdU for 24 h and pulsed with 10 μM BrdU (BD Biosciences Pharmingen, BrdU Flow Kit) for 45 minutes before collecting cells. According to manufacturer's instructions from BD Biosciences Pharmingen, cells were fixed, treated with DNAse for 1 h at 37° C., stained with FITC anti-BrdU for 20 minutes, and incubated with PI staining solution (50 μg/mL PI, 10 mM Tris-HCl pH 7.5, 5 mM MgCl2, 10 μg/mL DNase-free RNaseA) for 30 minutes at 37° C. For both assays, cells were analyzed on a BD LSRII instrument.

p53 WT cancer lines = test: Clonogenic survival assay, panel of p53 WT lines
Excerpt: (§4) p53 or UDG knockdown was achieved via shRNA transduction. Lentiviral vectors LV-THM-shp53 (which also expresses a GFP reporter) or LV-Bleo-shp53 to perform p53 KD in WT HCT116 cells were obtained from Case Western Reserve University, Cleveland, Ohio Lentiviral vector targeting GFP (sh-GFP) was used as control. UDG shRNA vectors (shUDG: NM_003362.2-656s21c1, shUDG-2: NM_003362.2-758s21c1, and shUDG-3: NM_003362.2-893s21c1) were purchased from Sigma, and a scramble targeting shRNA vector (Sigma) was used as paired control. The lentiviral production and infection were performed as previously described. Cells stably infected with LV-THM-p53 were isolated by cell sorting on the basis of their GFP expression.
as §3

DLD1 cells [5] = test: LC-MS/MS of uracil and 5-FU incorporated in cellular DNA; details: 5-FdU 100 and 200 nM 48 h
Experimental: Genomic DNA was extracted from cells treated with 5-FdU via phenol-chloroform mixture. 80 μg of DNA sample was dissolved in 1×UDG reaction buffer (20 mM Tris-HCl, 1 mM EDTA and 1 mM dithiothreitol, pH 8.0) and incubated with UDG enzyme (1 μL, 5 units) for 1 h at 37° C. For LC-MS/MS analysis of DNA-incorporated uracil and 5-FU, 75 μL of the enzyme reaction mixture was obtained, and uracil-1,3-^15N2 was used as the internal standard (Sigma-Aldrich). All uracil and 5-FU standards, internal standard, and QC samples were prepared in 1×UDG reaction buffer. […] Quantitation of the analytes was accomplished by a AB Sciex API 3200 triple quadrupole tandem mass spectrometer (AB Sciex), which was operated in the negative multiple-reaction-monitoring (MRM) mode with mass transitions of m/z 110.8>42.0 for uracil, m/z 112.9>43.0 for uracil-1,3-^15N2 and m/z 129.0>42.0 for 5-FU. This method has lower limits of quantitation of 2.50 ng/mL and linear calibration ranges up to 500 ng/mL for both uracil and 5-FU with a sample injection volume of 15 μL, as well as a total analysis time of 6 min.

[6] = test system: p53 mutant or deficient lines; test: Clonogenic survival assay, panel of p53 mutant or deficient lines; details: for resistance compared with p53 WT cells: cell lines with p53 mutation or deficiency vs p53 WT; for effect of UDG depletion on cytotoxicity: shUDG vs shSCR, p53 mutant or deficient cells
Excerpt: as §4, §3

Experimental for DLD1 colon cancer cells: UDG knockdown was performed via shRNA transduction with validated clone from Sigma-Aldrich. […] A non-targeted scramble control shRNA clone (Sigma-Aldrich) was also used. Transfection of shRNA clones was performed according to manufacturer's specifications from Lipofectamine 2000 (Invitrogen). Lentiviral particles were produced via HEK293 cells, and targeted cells were infected and selected with puromycin. The stable UDG knockdown levels were verified for q-PCR and western blot analysis.
Colonies were stained with methylene blue, and only colonies containing ≥50 cells were counted. The percentage of survival was determined relative to untreated control averaged over 3 independent experiments.

level of uracil and 5-FU in UDG depleted cells relative to shSCR-transfected cells (DLD1 cells [1]; 100 nM 5-FdU 24 h): about three times higher
released uracil and 5-FU from genomic DNA (DLD1 cells [5]; shSCR-transfected cells): Very low levels
released uracil and 5-FU from genomic DNA (DLD1 cells [5]; shUDG-transfected cells): significant increase
SMILES: O=c1[nH]c(=O)n([C@H]2C[C@H](O)[C@@H](CO)O2)cc1F [5-FdU, 5-fluorodeoxyuridine]
IC50 (A2780): 1.32 ± 0.33 nM
IC50 (H1299): 269.6 ± 0.73 nM
IC50 (A375): 111 ± 1.8 nM
levels of AP sites (DLD1 cells [1]; shSCR-transfected cells): remained low
levels of AP sites (DLD1 cells [1]; shUDG-transfected cells, dose dependent): dramatic increase
cell death (Annexin V and PI positive) (HCT116 p53 KO cells; UDG depleted cells, 48 to 96 h): significantly elevated
cell death (Annexin V and PI positive) (HCT116 p53 KO cells; UDG expressing cells): significantly lower
cell death (Annexin V and PI positive) (HCT116 p53 WT cells): significant cell death
γH2AX foci number and percentage of cells with over 10 foci over time (γH2AX foci in DLD1 cells; DLD1 UDG depleted): remained persistent
γH2AX foci number and percentage of cells with over 10 foci over time (γH2AX foci in DLD1 cells; DLD1 shSCR, after maximum at 12 h): gradually declined
γH2AX foci number and percentage of cells with over 10 foci over time ([2]; HEC1A UDG depleted): remained high
γH2AX foci number and percentage of cells with over 10 foci over time ([2]; HEC1A shSCR, after maximum at 48 h): reduced at 72 h and 96 h
time of 5-FdU treatment until appearance of cleaved PARP [3]: > 96 h
cell cycle progression (PI staining) (DLD1 cells [4]; synchronized DLD1 UDG depleted, late G1 and early S phase, lasted 48 h): strong cell cycle arrest
cell cycle progression (PI staining) (DLD1 cells [4]; synchronized DLD1 shSCR, through S phase by 36 h): slowed the progression
cell cycle profile (BrdU and PI co-staining) (DLD1 cells [4]; unsynchronized DLD1 shSCR): S phase arrest especially at middle and late S phase
cell cycle profile (BrdU and PI co-staining) (DLD1 cells [4]; unsynchronized DLD1 shUDG): arrested at late G1 and early S phase
cell survival in shSCR-transfected cells (DLD1 colon cancer cells; DLD1 shSCR, high concentrations): moderate loss of cell viability
effect of UDG depletion on drug sensitivity (DLD1 colon cancer cells; DLD1 shUDG vs shSCR): highly sensitized
IC50 (p53 WT cancer lines; read-out: IC50 values, p53 WT cancer lines except A375): < 10 nM
effect of UDG depletion on cytotoxicity (p53 WT cancer lines; shUDG vs shSCR, p53 WT cell lines): did not alter the cytotoxicity
resistance compared with p53 WT cells [6]: significantly more resistant
resistance compared with p53 WT cells ([6]; listed as 5FdU): relatively more resistant
IC50 ([6]; read-out: IC50 values, p53 mutant or deficient lines): > 100 nM
effect of UDG depletion on cytotoxicity [6]: selectively sensitized
effect of UDG depletion on cytotoxicity ([6]; listed as 5FdU): overcame this resistance
